According to ChEMBL document CHEMBL1275266, “Synthesis, cytotoxic activities and DNA binding properties of β-carboline derivatives” (Eur J Med Chem, 2010):
Active and inactive are the calls of the source. The calls are words filed in the database; no cut-off is given here.

Experiments:
769-P = experiment: Cytotoxicity against human 769-P cells by MTT assay; format: functional, cell-based
KB = experiment: Cytotoxicity against human KB cells by MTT assay; format: functional, cell-based
BGC-823 = experiment: Cytotoxicity against human BGC823 cells by MTT assay; format: functional, cell-based
786-0 = experiment: Cytotoxicity against human 786-0 cells by MTT assay; format: functional, cell-based
HepG2 = experiment: Cytotoxicity against human HepG2 cells by MTT assay; format: functional, cell-based
A-375 = experiment: Cytotoxicity against human A375 cells by MTT assay; format: functional, cell-based
HT-29 = experiment: Cytotoxicity against human HT-29 cells by MTT assay; format: functional, cell-based
OS-RC-2 = experiment: Cytotoxicity against human OS-RC2 cells by MTT assay; format: functional, cell-based
CWR22R = experiment: Cytotoxicity against human 22Rv1 cells by MTT assay; format: functional, cell-based
MCF7 = experiment: Cytotoxicity against human MCF7 cells by MTT assay; format: functional, cell-based
Calf thymus DNA [1] = experiment: Binding affinity to calf thymus DNA at 20 uM by UV spectroscopy; format: nucleic-acid assay; settings: Bos taurus
Calf thymus DNA [2] = experiment: Binding affinity to calf thymus DNA at 10 uM by fluorescence spectroscopy; format: nucleic-acid assay; settings: Bos taurus
Calf thymus DNA [3] = experiment: Binding affinity to calf thymus DNA assessed as change in melting temperature at 20 uM by thermal denaturation assay; format: nucleic-acid assay; settings: Bos taurus

Row | Activity (Calf thymus DNA [1]) | Activity (Calf thymus DNA [2]) | ΔTm (Calf thymus DNA [3]) [°C] | Structure (SMILES) | IC50 (769-P) [µM] | IC50 (KB) [µM] | IC50 (BGC-823) [µM] | IC50 (786-0) [µM] | IC50 (HepG2) [µM] | IC50 (A-375) [µM] | IC50 (HT-29) [µM] | IC50 (OS-RC-2) [µM] | IC50 (CWR22R) [µM] | IC50 (MCF7) [µM]
1 | Active | Active | 14.6 | CCN(CC)CCCNCc1cc2c3ccccc3n(CCCc3ccccc3)c2c(-c2cc(OC)c(OC)c(OC)c2)n1 | 2.7 | 6.5 | 5.9 | 4.7 | 1.7 | 2.6 | 5.9 | 8.3 | 7 | 4.9
2 | – | – | – | COc1cc(-c2nc(CNCCCN(C)C)cc3c2[nH]c2ccccc23)cc(OC)c1OC | > 50 | > 50 | > 50 | > 50 | 42.7 | > 50 | > 50 | > 50 | > 50 | > 50
3 | Active | Active | 14.8 | CCCCn1c2ccccc2c2cc(CNCCCN(CC)CC)nc(-c3cc(OC)c(OC)c(OC)c3)c21 | 7.5 | 37.3 | 6.1 | 7.7 | 8.5 | 11.3 | 14 | 25.7 | 4.2 | 6.8
4 | – | – | – | CCN(CC)CCCCNCc1cc2c3ccccc3n(C)c2c(-c2cc(OC)c(OC)c(OC)c2)n1 | 19.1 | 42.8 | 46.3 | 20.7 | 7.1 | > 50 | > 50 | > 50 | > 50 | 36.5
5 | – | – | – | COc1cc(-c2nc(CNCCCN(C)C)cc3c4ccccc4n(C)c23)cc(OC)c1OC | > 50 | > 50 | > 50 | 30.2 | 15.4 | > 50 | > 50 | > 50 | > 50 | 17.1
6 | – | – | – | CCCCn1c2ccccc2c2cc(CNCCN(CC)CC)nc(-c3cc(OC)c(OC)c(OC)c3)c21 | 14.5 | 44.9 | 13.9 | 13.9 | 18.6 | 14.5 | > 50 | 45.4 | 8.9 | > 50
7 | Active | Active | 17.3 | CCN(CC)CCCNCc1cc2c3ccccc3n(C)c2c(-c2cc(OC)c(OC)c(OC)c2)n1 | 34.6 | 29 | 48.5 | 12.1 | 8.2 | 48.4 | 43.1 | > 50 | > 50 | 28.3
8 | – | – | – | CC(=O)O[C@H]1C(=O)[C@@]2(C)[C@H]([C@H](OC(=O)c3ccccc3)[C@]3(O)C[C@H](OC(=O)[C@H](O)[C@@H](NC(=O)c4ccccc4)c4ccccc4)C(C)=C1C3(C)C)[C@]1(OC(C)=O)CO[C@@H]1C[C@@H]2O [PACLITAXEL] | – | 0.08 | 1.5 | < 0.08 | < 0.08 | – | – | < 0.08 | – | –
9 | – | – | 32 | COc1cccc2c1C(=O)c1c(O)c3c(c(O)c1C2=O)C[C@@](O)(C(=O)CO)C[C@@H]3O[C@H]1C[C@H](N)[C@H](O)[C@H](C)O1 | – | – | – | – | – | – | – | – | – | –
10 | – | – | – | CCCCn1c2ccccc2c2cc(CNCCCCN(CC)CC)nc(-c3cc(OC)c(OC)c(OC)c3)c21 | 11.6 | 7.6 | 19.2 | 11 | 2.5 | 11 | 19.8 | 28.7 | 8.5 | 5.3
11 | – | – | 24.8 | CCN(CC)CCCNCc1cc2c([nH]c3ccccc32)c(-c2cc(OC)c(OC)c(OC)c2)n1 | > 50 | > 50 | > 50 | > 50 | 39.6 | > 50 | > 50 | 46.8 | > 50 | > 50
12 | – | – | – | COc1cc(-c2nc(CNCCCN(C)C)cc3c4ccccc4n(CCCc4ccccc4)c23)cc(OC)c1OC | 10.4 | 4.4 | 8.5 | 6 | 3.9 | 3.7 | 7.9 | 9.4 | 10 | 6.7
13 | – | – | – | CCN(CC)CCNCc1cc2c3ccccc3n(CCCc3ccccc3)c2c(-c2cc(OC)c(OC)c(OC)c2)n1 | 3 | 2.5 | 2.7 | 3.4 | 3.8 | 12 | 10.9 | 3 | 18.9 | 8.1
14 | – | – | – | CCN(CC)CCNCc1cc2c3ccccc3n(C)c2c(-c2cc(OC)c(OC)c(OC)c2)n1 | > 50 | > 50 | > 50 | 33.7 | 14.8 | > 50 | > 50 | > 50 | > 50 | > 50
15 | – | – | – | CCN(CC)CCCCNCc1cc2c3ccccc3n(CCCc3ccccc3)c2c(-c2cc(OC)c(OC)c(OC)c2)n1 | 3.9 | 6.9 | 6.1 | 5.5 | 2.1 | 3.7 | 7.5 | 8.7 | 6.3 | 5.2
16 | – | – | – | CCCCn1c2ccccc2c2cc(CNCCCN(C)C)nc(-c3cc(OC)c(OC)c(OC)c3)c21 | 7.3 | 33.5 | 6.8 | 6 | 8.2 | 11 | 11.3 | 25.6 | 10.8 | 9.3
